“And” between values parts separate entries of the source, which are not always exact repeats. Identical values can stand only once.
How the values were obtained:
U87 glioblastoma = assay: MTT growth inhibition assay, 72 h; format: cell-based, human
MCF-7 breast = assay: MTT growth inhibition assay, 72 h; format: cell-based, human; settings: for GI50: MTT, 72 h
H460 lung = assay: MTT growth inhibition assay, 72 h; format: cell-based, human
A431 skin = assay: MTT growth inhibition assay, 72 h; format: cell-based, human
Du145 prostate = assay: MTT growth inhibition assay, 72 h; format: cell-based, human; settings: for GI50: MTT, 72 h
BE2-C neuroblastoma = assay: MTT growth inhibition assay, 72 h; format: cell-based, human
SJ-G2 glioblastoma = assay: MTT growth inhibition assay, 72 h; format: cell-based, human
MIA pancreas = assay: MTT growth inhibition assay, 72 h; format: cell-based, human; settings: MTT, 72 h
[1] = test system: non-tumor-derived MCF10A breast line; assay: MTT growth inhibition assay, 72 h; format: cell-based, human
[2] = test system: ADDP ovarian (cisplatin-resistant A2780 clone); assay: MTT growth inhibition assay, 72 h; format: cell-based, human; settings: MTT, 72 h
[3] = Stability in solvent systems by HPLC; format: physicochemical; settings: room temperature
Experimental: The stability of PCLB, 5CLB, and 56CLB was evaluated by HPLC. The complexes were tested in three solvent systems, 10 mM PBS (~7.4 pH), 0.9% NaCl and d.i.H2O/DMSO (50:50). This process was followed for 1 h at room temperature for each complex in each solvent system (Table 3 and Figure S32). However, it is noteworthy that when these complexes are left in solution for more extended periods, reduction to the corresponding platinum(II) species appears inevitable (Figure S33). This is likely influenced by the nature of the coordinated CLB ligand, which is highly susceptible to rapid hydrolysis due to its functional group.
The stability of PCLB, 5CLB, and 56CLB was monitored using an Agilent Technologies 1260 Infinity instrument equipped with a Phenomenex Onyx^TM Monolithic C18-reverse phase column (100 × 4.6 mm, 5 µm pore size). The mobile phase consisted of solvents, A (0.06% TFA in d.i.H2O) and B (0.06% TFA in CH3CN/d.i.H2O (90:10)). An injection volume of 5 µL was utilized and eluted with a 0–100% linear gradient over 15 min with a flow rate of 1 mL/min, at the set wavelengths of 214 and 254 nm. Each complex was dissolved separately in three solvent systems including, 10 mM phosphate-buffered saline (PBS) at ~7.4 pH, 0.9% sodium chloride (NaCl) or standard saline solution and d.i.H2O/DMSO (50:50). Each HPLC run per solvent system was followed for 1 h at room temperature.

[4] = Reduction experiments with ascorbic acid by 1H-NMR and 1D-195Pt-NMR; format: physicochemical; settings: 10 mM AsA, 10 mM PBS (~7.4 pH), D2O, 37 °C, 1H-NMR
Experimental: Intracellularly, a platinum(IV) complex is reduced into its platinum(II) congener and axial ligands in the presence of biological reducing agents such as AsA or glutathione. This report followed the reduction in PCLB, 5CLB, and 56CLB using ^1H-NMR and 1D-^195Pt-NMR spectroscopy. The method used for the reduction experiments was adapted from the literature with minor modifications. A total of 10 mM PBS (~7.4 pH) was selected as media to mimic physiological conditions, while 10 mM AsA was used as the biological reducing agent. Prior to the reduction experiments, a control was considered where each metal complex was dissolved with PBS in D2O. 1D-^195Pt-NMR was employed within the regions of −2800 and 400 ppm (30 min per region) at 37 °C. Typically, our platinum(II) complexes resonate within the −2800 ppm region (Figures S1–S3), while their platinum(IV) derivatives resonate around the 400 ppm region (Figures S4–S6). A control was required to ensure that the PBS would not interfere in the reduction process of the complexes. From the preliminary 1D-^195Pt-NMR spectra obtained (Figure 11), the state of all complexes was unchanged, and no sign of reduction was observed.
The reduction property of PCLB was monitored for 1 h by ^1H-NMR spectroscopy at 37 °C (Figure 12). Utilizing the resonances of the phenanthroline protons (H2 and H9; H4 and H7; H5 and H6; H3 and H8) from both platinum(II) and (IV) species as a qualitative measure of […], and considering that the resonances of these phenanthroline protons from both platinum(II) and (IV) species were almost equivalent, it is estimated that 40–50% reduction occurs within 10 min. […] A notable observation from the ^1H-NMR experiments is the movement of resonances, particularly the upfield shift of the phenanthroline protons and the downfield shift of the aromatic protons of CLB (Figure 12).
The reduction behavior of PCLB, 5CLB, and 56CLB was monitored using ^1H-NMR and 1D-^195Pt-NMR spectroscopy. A sequence of ^1H-NMR experiments was carried out for 1 h at 37 °C, followed by 1D-^195Pt-NMR within the regions of −2800 and 400 ppm. An amount of 10 mM PBS (~7.4 pH) was transferred to a vial and reduced to dryness through rotary evaporation. AsA (~1 mg) was combined with the metal complex (~5 mg) and transferred to the vial containing the dried PBS. A total of 600 µL of D2O was then added to the vial to dissolve the complex, AsA and the PBS together. Each reaction was followed at 37 °C until the complete reduction in the prodrugs.

Structure (SMILES) | GI50 (U87 glioblastoma) | fold by which the cisplatin prodrug incorporating two CLB ligands (Ma et al.) is less potent (MCF-7 breast; MCF-7 cell line) | GI50 (MCF-7 breast) | GI50 (H460 lung) | GI50 (A431 skin) | GI50 (Du145 prostate) | GI50 (BE2-C neuroblastoma) | GI50 (SJ-G2 glioblastoma) | GI50 (MIA pancreas) | GI50 [1] | GI50 [2] | HPLC Peak Areas at 254 nm ([3]; 0.9% NaCl, 30 min) | HPLC Peak Areas at 254 nm ([3]; 0.9% NaCl, 1 h) | HPLC Peak Areas at 254 nm ([3]; PBS (~7.4 pH), 30 min) | HPLC Peak Areas at 254 nm ([3]; PBS (~7.4 pH), 1 h) | HPLC Peak Areas at 254 nm ([3]; d.i.H2O/DMSO (50:50), 30 min) | HPLC Peak Areas at 254 nm ([3]; d.i.H2O/DMSO (50:50), 1 h) | time to reach 50% reduction [4] | also measured
Cc1cc2cccnc2c2ncccc12.N[C@H]1CCCC[C@@H]1N.O=C([O-])CCCc1ccc(N(CCCl)CCCl)cc1.O=[N+]([O-])[O-].O=[N+]([O-])[O-].[OH-].[Pt+4] [5CLB, [Pt^IV(5-methyl-1,10-phenanthroline)(S,S-DACH)(CLB)(OH)](NO3)2] | 250 ± 0.015 nM | 12 fold | 180 ± 0.017 nM | 39 ± 0.013 nM | 90 ± 0.015 nM | 14 ± 0.004 nM | 230 ± 0.039 nM | 180 ± 0.02 nM | 34 ± 0.005 nM | 22 ± 0.0045 nM | 26 ± 0.0064 nM | 73.9% | 72.4% | 68.8% | 67.3% | 76.5% | 75.8% | approximately 5 min | –
Cc1c(C)c2cccnc2c2ncccc12.N[C@H]1CCCC[C@@H]1N.O=C([O-])CCCc1ccc(N(CCCl)CCCl)cc1.O=[N+]([O-])[O-].O=[N+]([O-])[O-].[OH-].[Pt+4] [56CLB, [Pt^IV(5,6-dimethyl-1,10-phenanthroline)(S,S-DACH)(CLB)(OH)](NO3)2] | 93 ± 0.0067 nM | 35 fold | 63 ± 0.015 nM | 13 ± 0.0056 nM | 34 ± 0.0037 nM | 3 nM and 2.7 nM | 140 ± 0.012 nM | 130 ± 0.03 nM | 11 ± 0.003 nM | 7 ± 0.004 nM | 10 ± 0.0028 nM | 84.6% | 82.5% | 78.2% | 75.2% | 85.0% | 84.3% | approximately 5 min | fold more potent than oxaliplatin-CLB prodrug of Qin et al. (MCF-7 breast): ~200 fold; fold more potent than cisplatin-CLB prodrug of Qin et al. (MCF-7 breast; MCF-7 cell line): about 63 fold; fold increase in potency compared to CLB (Du145 prostate; Du145 prostate cell line): 10,000 fold; fold more potent than cisplatin (Du145 prostate; Du145 prostate cell line): at least 440 fold
O=C(CCCc1ccc(N(CCCl)CCCl)cc1)[O][Pt-2]12([OH])([NH2+][C@H]3CCCC[C@@H]3[NH2+]1)[n+]1cccc3ccc4ccc[n+]2c4c31.O=[N+]([O-])[O-].O=[N+]([O-])[O-] [PCLB, [Pt^IV(1,10-phenanthroline)(S,S-DACH)(CLB)(OH)](NO3)2] | 1200 ± 0.28 nM | 3 fold | 680 ± 0.043 nM | 460 ± 0.063 nM | 510 ± 0.1 nM | 210 ± 0.12 nM | 440 ± 0.03 nM | 320 ± 0.04 nM | 190 ± 0.032 nM | 300 ± 0.045 nM | 290 ± 0.037 nM | 89.4% | 87.5% | 85.0% | 83.1% | 93.2% | 92.4% | – | state of the complex at 1 h [4]: almost reduced to its platinum(II) congener; time at which the complex started reducing [4]: 5 min

— PMC9499463, “Potent Chlorambucil-Platinum(IV) Prodrugs” (International Journal of Molecular Sciences, 2022)
